Results as given in paper PMC7845692 (Frontiers in Pharmacology, 2020).
Read-outs that look alike come from different tables or passages of the source.

Assays:
Human coronavirus OC43 = experiment: HCoV-OC43 immunofluorescent assay (IFA) against N protein in HCT-8 cells; format: cell-based; details: for EC50: read-out: Human coronavirus OC43 EC50 (IFA); for Human coronavirus OC43 Selectivity index: CC50/EC50, HCT-8 cells
[1] = HCT-8 cell viability (MTS); details: human
[2] = cell cytotoxicity by visualization (FIPV host cells); details: cat
Description: (§2) The serotype II FIPV Taiwan isolate NTU156 strain, a kind gift from National Taiwan University, was propagated and titrated in Fcwf-4 cells ([Lin et al., 2009]). The EC50 for anti-FIPV activity and CC50 for cell cytotoxicity were determined as previously described ([Yang et al., 2020b]).

[3] = test system: Feline infectious peritonitis virus; experiment: anti-FIPV activity, cytopathic effect by visualization in Fcwf-4 cells; details: for EC50: Alphacoronavirus 1, read-out: Feline infectious peritonitis virus EC50 CPE/visualization
Description: as §2

HCoV-OC43 = HCoV-OC43 viral yield, end point dilution assay / TCID50; format: cell-based, Human coronavirus OC43; details: for concentration accomplishing complete reduction of HCoV-OC43 viral yield: reduction ∼7–8 log
in vitro [4] = details: human
SARS-CoV-2 [5] = experiment: microbe, parasite or virus in culture; format: cell-based; details: Severe acute respiratory syndrome coronavirus 2, Vero C1008; Vero E6 cells, 5–7 days, Figure 5B-b; read-out: SARS-CoV-2 plaque assay EC50
HCoV-229E [6] = experiment: HCoV-229E viral RNA (ORF1, ORF N) by semi-RT-qPCR in MRC-5 cells; format: cell-based, Human coronavirus 229E; details: MRC-5, MOI 1, 30 h.p.i., 10–300 nM, dose dependent
Description: These experiments were performed as described ([Yang et al., 2007b]). Mock or HCoV-229E infected (MOI of 1) lysates were processed and prepared at 30 h.p.i. without or with compound treatment. The total RNA was extracted with TRIzol reagent (Invitrogen). The relative viral RNA expression levels were determined by semi-RT-qPCR, analyzed with the ImageJ Analyzer program (http://imagej.nih.gov/ij/index.html), and normalized with the housekeeping gene GAPDH. The primers used to amplify the PCR products were 5′-GGCGAGGTGGAATTTGTTTA-3′ and 5′-ACCTTTAAGCCACCATGTGC-3′ for ORF1; 5′-TCTGCCAAGAGTCTTGCTCG-3′ and 5′-AGCATAGCAGCTGTTGACGG-3′ for ORF N. The amplification of target cDNA was conducted under the following conditions: 25 cycles of 95°C for 30 s, 55°C for 20 s, and 72°C for 30 s for ORF N; 29 cycles of 95°C for 30 s, 55°C for 20 s, and 72°C for 30 s for ORF1, and 35 cycles of 95°C for 30 s, 55°C for 20 s, and 72°C for 30 s for GAPDH. The final PCR products were subjected to electrophoresis on 2% agarose gel containing ethidium bromide along with DNA markers.

SARS-CoV-2 [7] = experiment: SARS-CoV-2 cytopathic effect by visualization in Vero E6 cells; format: cell-based
Description: (§1) CPE was performed as described ([Wu et al., 2004]). For IFA, Vero E6 cells (BCRC number: 60476; derived from ATCC CRL-1586) were treated with each compound at the indicated concentration for 1 h at 37°C. The cells were adsorbed with SARS-CoV-2 (TCDC#4) (sequence available on the GISAID website) at an MOI = 0.01 for 1 h at 37°C. After virus adsorption, the cells were washed with PBS and fresh medium containing each compound at the indicated concentration was added. After 2 days, cells were fixed with 4% paraformaldehyde and permeabilized with 0.5% Triton X-100. The cells were stained with anti-SARS-CoV-2 N protein antibody, provided by Dr. An-Suei Yang of the Genomics Research Center, Academia Sinica, and goat anti-human IgG-Alexa Fluor 488 (A11013, Invitrogen) (in green). The nuclei were counter stained with DAPI (in blue) (D1306, Invitrogen). The N protein expression was measured using a high-content image analysis system (Molecular Devices). The cell viability was determined by Cell Counting Kit-8 (CCK-8) (Sigma-Aldrich, cat #96992). EC50 and CC50 values were calculated by Prism software.

[8] = Vero E6 cytotoxicity by visualization; format: cell-based; details: African green monkey, Vero E6 cells; read-out: SARS-CoV-2 CC50 Visualization
Description: as §1

SARS-CoV-2 [9] = experiment: SARS-CoV-2 IFA against N protein in Vero E6 cells; format: cell-based; details: for SARS-CoV-2 Selectivity index (IFA/CCK-8): CC50/EC50, Vero E6 cells
Description: as §1

[10] = Vero E6 cell viability (CCK-8); format: cell-based; details: African green monkey, Vero E6 cells; read-out: SARS-CoV-2 CC50 CCK-8
Description: as §1

in vitro [11] = details: human, MRC-5 cells
HCoV-229E [12] = experiment: HCoV-229E viral yield, end point dilution assay / TCID50; details: MRC-5, MOI 0.05; for complete reduction of HCoV-229E viral yield: at 100, 300 and 600 nM respectively (dbq33b, dbq33b4p7, PI09); for concentration giving complete reduction of HCoV-229E viral yield: reduction 6–7 log
Human coronavirus 229E = experiment: HCoV-229E cytopathic effect, crystal violet absorbance in MRC-5 cells; details: CC50/EC50, MRC-5 cells
[13] = Betacoronavirus 1, OC43, HCT-8, 72 h
[14] = Betacoronavirus 1, OC43, HCT-8 cells, MOI 0.05, 72 h.p.i., means ± SD
[15] = HCT-8, MOI 0.05, reduction ∼2–3 orders of magnitude
[16] = Severe acute respiratory syndrome coronavirus 2, Vero C1008, 48 h, read-out: SARS-CoV-2 EC50 IFA, Vero E6 cells, MOI 0.01, 2 d.p.i., N protein
[17] = at concentrations of up to 50 μM

Structure (SMILES) | EC50 (Human coronavirus OC43; [13]) [nM] | Human coronavirus OC43 Selectivity index (Human coronavirus OC43) | CC50 at 72 h ([1]; HCT-8 cells) [nM] | CC50 [2] [nM] | EC50 [3] [nM] | Feline infectious peritonitis virus Selectivity index ([3]; CC50/EC50, Fcwf-4 cells) | EC50 (Human coronavirus OC43; [14]) [nM] | CC50 (in vitro [4]) [nM] | also measured
COc1cc2c3c(c4cc(OC)c(OC)c(OC)c4c2cc1OC)CC1CCC[N+]1([O-])C3 (stereo not shown) [031p13-3] | 1890 ± 228 | >5.3 | > 10000 | > 50000 | 1560 | >32.1 |  |  | 
C[C@]12CC[C@H](O)C[C@H]1CC[C@@H]1[C@@H]2CC[C@]2(C)[C@@H](c3ccc(=O)oc3)CC[C@]12O [Bufalin, bufalin, reference compound] | 56 ± 4 | 16.1 |  | 542 ± 213 | 19 ± 9 | 28.5 |  |  | concentration of maximum reduction of HCoV-OC43 viral yield (HCoV-OC43): 100 nM; maximum reduction of HCoV-OC43 viral yield (HCoV-OC43): 2–3 orders of magnitudes; CC50 at 72 h [1]: 900 ± 180 nM
C[C@]12CC[C@H](O)C[C@H]1CC[C@@H]1[C@@H]2CC[C@]2(C)[C@@H](C3=CC(=O)OC3)CC[C@]12O [Digitoxigenin, digitoxigenin] | 323 ± 20 | >7.7 |  | 3560 ± 375 | 458 ± 18 | 7.8 |  |  | CC50 at 72 h [1]: > 2500 nM
C[C@H]1O[C@@H](O[C@H]2[C@@H](O)C[C@H](O[C@H]3[C@@H](O)C[C@H](O[C@H]4CC[C@@]5(C)[C@H](CC[C@@H]6[C@@H]5C[C@@H](O)[C@]5(C)[C@@H](C7=CC(=O)OC7)CC[C@]65O)C4)O[C@@H]3C)O[C@@H]2C)C[C@H](O)[C@@H]1O [Digoxin, digoxin] |  | 5.2 |  | 1190 ± 603 | 212 ± 96 |  | 269 ± 45 | 1400 ± 350 | Feline infectious peritonitis virus Selectivity index [3]: 5.6
N#C[C@@]1(c2ccc3c(N)ncnn23)O[C@H](CO)[C@@H](O)[C@H]1O [GS441524, GS-441524] | 6930 | >7.2 |  |  |  |  |  |  | EC50 (SARS-CoV-2 [5]): 860 ± 29.2 nM; CC50 at 72 h (in vitro [4]): > 50000 nM
CO[C@H]1C[C@H](O[C@H]2CC[C@@]3(C)[C@H](CC[C@@H]4[C@@H]3CC[C@]3(C)[C@@H](C5=CC(=O)OC5)[C@@H](OC(C)=O)C[C@]43O)C2)O[C@@H](C)[C@@H]1O [Oleandrin, oleandrin] |  | 3.8 |  | 2850 ± 1070 | 729 ± 244 | 3.9 | 56 ± 5 | 211 ± 62 | maximum reduction of HCoV-OC43 viral yield (HCoV-OC43): 2–3 orders of magnitudes; concentration of maximum reduction of HCoV-OC43 viral yield (HCoV-OC43; [15]): 30 nM
C[C@@H]1O[C@@H](O[C@H]2C[C@@H](O)[C@]3(CO)[C@H]4[C@H](O)C[C@]5(C)[C@@H](C6=CC(=O)OC6)CC[C@]5(O)[C@@H]4CC[C@]3(O)C2)[C@H](O)[C@H](O)[C@H]1O [Ouabain, ouabain] |  | 7.1 |  | 6250 ± 2160 | 1560 | 4.0 | 71 ± 7 | 504 ± 11 | maximum reduction of HCoV-OC43 viral yield (HCoV-OC43): 2–3 orders of magnitudes; concentration of maximum reduction of HCoV-OC43 viral yield (HCoV-OC43; [15]): 10 nM
COc1cc2c3c(c4cc(OC)c(OC)cc4c2cc1OC)CN1CCCC1C3 (stereo not shown) [PI09] |  | >147 |  | 6380 ± 2250 | 62 ± 25 | 102.8 | 68 ± 3 | > 10000 | complete reduction of HCoV-OC43 viral yield (HCoV-OC43): 7–8 log of magnitudes; concentration accomplishing complete reduction of HCoV-OC43 viral yield (HCoV-OC43; HCT-8, MOI 0.05): 300 nM; effect on HCoV-229E viral genome replication and subgenomic viral RNA syntheses (RT-PCR ORF1, ORF N) (HCoV-229E [6]): inhibited HCoV-229E viral genome replication and subgenomic viral RNA syntheses; EC50 (SARS-CoV-2 [7]; Severe acute respiratory syndrome coronavirus 2, Vero C1008, read-out: SARS-CoV-2 EC50 CPE/visualization): 78 nM; CC50 [8]: 5000 nM; SARS-CoV-2 Selectivity index (IFA/CCK-8) (SARS-CoV-2 [9]): 46; EC50 (SARS-CoV-2 [9]; [16]): 77 nM; EC50 (SARS-CoV-2 [9]; read-out: SARS-CoV-2 EC50 IFA, Vero E6 cells, MOI 0.01, 2 d.p.i., N protein): 76.8 nM; CC50 [10]: 3550 nM; CC50 (in vitro [11]): 6640 nM; complete reduction of HCoV-229E viral yield (HCoV-229E [12]): 6–7 log of magnitudes; concentration giving complete reduction of HCoV-229E viral yield (HCoV-229E [12]): 600 nM; Human coronavirus 229E Selectivity index (Human coronavirus 229E): 93
COc1cc2c3c(c4cc(OC)c(OC)cc4c2cc1OC)CN1CCCCC1C3 (stereo not shown) [PQ09] | 52 ± 6 | >193 | > 10000 | 3090 ± 886 | 17 ± 6 | 182.0 |  |  | 
CCC(CC)COC(=O)[C@H](C)N[P@](=O)(OC[C@H]1O[C@@](C#N)(c2ccc3c(N)ncnn23)[C@H](O)[C@@H]1O)Oc1ccccc1 [Remdesivir] | 947 ± 320 | >52.8 |  |  |  |  |  | > 50000 | EC50 (SARS-CoV-2 [5]): 647 ± 16.7 nM
CCN1CCc2c(c3cc(OC)c(OC)cc3c3cc(OC)ccc23)C1 [dbq29a] | 213 ± 62 | >46.9 | > 10000 | 4310 ± 1120 | 352 ± 77 | 12.3 |  |  | 
CCN1Cc2c(c3ccc(OC)cc3c3cc(OC)c(OC)cc23)C(O)C1C (stereo not shown) [dbq33b4p7] | 56 ± 6 | >179 | > 10000 | 6250 ± 2160 | 20 ± 7 | 312.5 |  |  | complete reduction of HCoV-OC43 viral yield (HCoV-OC43; HCT-8, MOI 0.05, supernatant 72 h.p.i., at 30, 100 and 300 nM respectively (dbq33b, dbq33b4p7, PI09)): 7–8 log of magnitudes; concentration accomplishing complete reduction of HCoV-OC43 viral yield (HCoV-OC43; HCT-8, MOI 0.05): 100 nM; effect on HCoV-229E viral genome replication and subgenomic viral RNA syntheses (RT-PCR ORF1, ORF N) (HCoV-229E [6]): inhibited HCoV-229E viral genome replication and subgenomic viral RNA syntheses; SARS-CoV-2 Selectivity index (CPE/visualization) (SARS-CoV-2 [7]; CC50/EC50, Vero E6 cells): 125; EC50 (SARS-CoV-2 [7]; Severe acute respiratory syndrome coronavirus 2, Vero C1008, Vero E6 cells, means from duplicate, read-out: SARS-CoV-2 EC50 CPE/visualization): 20 nM; CC50 [8]: 2500 nM; SARS-CoV-2 Selectivity index (IFA/CCK-8) (SARS-CoV-2 [9]): 93; EC50 (SARS-CoV-2 [9]; [16]): 32 nM; EC50 (SARS-CoV-2 [9]; Vero E6 cells, MOI 0.01, 2 d.p.i., N protein, read-out: SARS-CoV-2 EC50 IFA): 31.9 nM; CC50 [10]: 2970 nM; CC50 (in vitro [11]): 7360 nM; complete reduction of HCoV-229E viral yield (HCoV-229E [12]): 6–7 log of magnitudes; concentration giving complete reduction of HCoV-229E viral yield (HCoV-229E [12]): 300 nM; Human coronavirus 229E Selectivity index (Human coronavirus 229E): 290
C[C@]12CC[C@H](O)C[C@H]1CC[C@@H]1[C@@H]2CC[C@]2(C)[C@@](O)(c3ccoc3)CC[C@]12O [rostafuroxin] |  |  |  |  |  |  |  |  | inhibitory activity against HCoV-OC43 (Human coronavirus OC43; [17]): did not exhibit any inhibitory activity; inhibitory activity against FIPV [3, 17]: did not exhibit any inhibitory activity
